Values joined by “and” are separate entries in the source; they are usually repeats but may differ in a detail not shown here. Identical values can stand only once.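 Cultured in 96-well plates, cells were exposed to test compound for 48 hours across five concentrations. At the GI50, growth is halved. TGI denotes the concentration required for complete inhibition of growth.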 Where a SMILES comes first, the peptide text is derived from it. [ ]: non-standard residue; d: D form. The star is where a group is joined. Phe(4-NO2) = N[CH](Cc1ccc([N+](=O)[O-])cc1)C(=O)O; Boc = CC(C)(C)OC(=O)*
What was measured:
Assay in all cases: NCI anticancer screen, dose series, 48 h
HCT-116 colon = test system: HCT-116 colon
HOP-92 NSCLC = test system: HOP-92 NSCLC
KM12 colon = test system: KM12 colon
MCF7 breast = test system: MCF7 breast
PC-3 prostate = test system: PC-3 prostate
RPMI-8226 leukemia = test system: RPMI-8226 leukemia
SF-539 CNS = test system: SF-539 CNS
SK-MEL-2 melanoma = test system: SK-MEL-2 melanoma
SNB-75 CNS = test system: SNB-75 CNS
UO-31 renal = test system: UO-31 renal

Row | Structure (SMILES) | GI50 (HCT-116 colon) [µM] | TGI (HCT-116 colon) [µM] | GI50 (HOP-92 NSCLC) [µM] | TGI (HOP-92 NSCLC) | GI50 (KM12 colon) [µM] | TGI (KM12 colon) [µM] | GI50 (MCF7 breast) [µM] | TGI (MCF7 breast) | TGI (PC-3 prostate) [µM] | TGI (RPMI-8226 leukemia) [µM] | TGI (SF-539 CNS) [µM] | TGI (SK-MEL-2 melanoma) [µM] | TGI (SNB-75 CNS) [µM] | TGI (UO-31 renal) [µM]
1 | O=C1C(N2CCN(CCOCCO)CC2)=C(Cl)C(=O)c2ncccc21 | 18.5 | 33.5 | 16.7 | 6.27 µM and 31.4 µM | > 100 | > 100 | 18.3 | 5.97 µM and 36.7 µM | 38.9 | 47.8 | 44.6 | 43.9 | > 100 | 33.6
2 | O=[N+]([O-])c1ccc(N2N=C(c3c(O)ccc4ccccc34)CC2c2ccc(Cl)cc2)c([N+](=O)[O-])c1 (stereo not given) |  | 37.2 |  | > 100 µM |  | 45.5 |  | > 100 µM | 66.4 | > 100 | 91.7 | 44.2 | > 100 | > 100
3 | O=C1Nc2cccc(Cl)c2/C1=C\c1c(-c2ccccc2)nc2n1CCS2 |  | 54.6 |  | 56.9 µM |  | 52.1 |  | 39.1 µM | 41.8 | 52.9 | 36 | 46.2 | 66.8 | 48.8
4 | NC1CCCCC1NCCNC1CCCCC1N (stereo not given) |  | > 100 |  | > 100 µM |  | > 100 |  | > 100 µM | > 100 | > 100 | > 100 | > 100 |  | > 100
5 | O=c1[nH]nc(-c2ccccc2)c2[nH]c3c(c12)Cc1ccccc1-3 |  | > 100 |  | 9.68 µM |  | > 83.5 |  | > 100 µM | > 100 | > 28.4 | > 28.3 | > 100 | > 43.3 | > 100
6 | c1cc2cc3c4c5c(cc6ccc7cc8cc9c%10c8c8c7c6c5c8c5c%10c(c1C9N1CCOCCOCCOCCOCCOCC1)c2c45)C3 (stereo not given) |  | > 100 |  | > 100 µM |  | > 100 |  | > 100 µM | > 100 | > 100 | > 100 | > 100 | > 100 | > 100
7 | CC(C)(C)c1cc(OCc2nnc3sc(Cc4ccccc4)nn23)c(Cl)cc1OCc1nnc2sc(Cc3ccccc3)nn12 |  | 75.2 |  | 35.4 µM |  | 57.2 |  | 37.2 µM | > 100 | > 100 | > 100 | > 100 | 84.8 | > 100
8 | COc1cccc2c1OC1c3ccccc3OCC1(O)C2 (stereo not given) |  | > 100 |  | > 100 µM |  | > 100 |  | > 100 µM | > 100 | > 100 | > 100 | > 100 | > 100 | > 100
9 | O=C1CC(c2ccsc2)n2cccc21 (stereo not given) |  | > 100 |  | > 100 µM |  | > 100 |  | > 100 µM | > 100 | > 100 | > 100 | > 100 | > 100 | > 100
10 | O=C1C=CC2(O[C@H](C3CCCCC3)[C@@H](C3CCCCC3)O2)C(SC(=O)c2ccccc2)C1 (stereo not given in full) |  | 1.75 |  | 16.8 µM |  | 18.3 |  | 5.08 µM | 7.43 | 2.22 | 11.6 | 12.8 | 14.4 | 4.31
11 | Oc1ccc(Cl)cc1-c1cc(-c2ccccc2)nc(=S)[nH]1 |  | > 100 |  | 47.6 µM |  | > 100 |  | > 100 µM | > 100 | > 100 | > 100 | 78.2 | 59.2 | 68.9
12 | Oc1ccc2ccccc2c1OCc1nnc(CCCCCCCCc2nnc(COc3c(O)ccc4ccccc34)n2Nc2ccccc2)n1Nc1ccccc1 |  | 26 |  | 61.5 µM |  | 33 |  | > 100 µM | > 100 | > 100 | 26.7 | > 76.6 | > 100 | > 82
13 | COc1cccc(C(C#N)NNC(=O)c2c(Cl)c(Cl)c(Cl)c(Cl)c2-c2nc3ccc(C(=O)c4ccccc4)cc3[nH]2)c1O (stereo not given) |  | > 100 |  | > 100 µM |  | > 100 |  | > 100 µM | > 100 | > 100 |  | 29.4 | 7.46 | > 100
14 | COc1ccc(-n2c(N)c(C#N)c(C#N)c2-c2ccco2)cc1 |  | > 100 |  | > 100 µM |  | > 100 |  | > 100 µM | > 100 | > 100 | > 100 | > 100 | > 100 | > 100
15 | Cc1cn(C2CC(COCc3ccccc3)N(CCO[Si](C)(C)C(C)(C)C)O2)c(=O)[nH]c1=O (stereo not given) |  | 43 |  | 25.7 µM |  | 31.1 |  | 33 µM | 18.1 | 34.1 | 33.9 | 30 |  | 28.2
16 | CCOC(=O)CCC(NC(=O)C(Cc1ccc([N+](=O)[O-])cc1)NC(=O)OC(C)(C)C)C(=O)NC(CCC(=O)OCC)C(=O)OCC (stereo not given) (Boc-[Phe(4-NO2)]-Glu(OEt)-Glu(OEt)-OEt; configuration not given here) |  | 38.5 |  | 34.7 µM |  | 28.1 |  | > 100 µM | 39.5 | 43.3 |  | 25.9 | 31.5 | > 100
17 | Nc1ccc2c(=O)cc(-c3ccc(Br)s3)[nH]c2n1 |  | > 100 |  | > 100 µM |  | > 100 |  | > 100 µM | > 100 | > 100 | 6.02 | > 100 | > 28.6 | > 23.2
18 | COc1cc(S(=O)(=O)Nc2ccc(-c3csc(N4C(=O)C(Cl)C4c4ccccc4O)n3)cc2)ccc1Cl (stereo not given) |  | > 100 |  | 91.9 µM |  | > 100 |  | 54.2 µM | > 100 | 83.9 | > 100 | > 100 | > 100 | > 100
19 | O=S(=O)(/N=S(/Nc1ccccc1)C(F)(F)Cl)c1ccccc1 (stereo not given) |  | > 100 |  | > 100 µM |  | > 100 |  | > 100 µM | > 100 | > 100 | > 100 | > 100 | > 100 | > 100
20 | Clc1ccc(-c2nn3c(COc4cccc(OCc5nnc6sc(-c7ccc(Cl)cc7)nn56)c4)nnc3s2)cc1 |  | 44.7 |  | > 100 µM |  | > 100 |  | 27.2 µM | > 100 | > 100 | 49.5 | > 100 | 73.5 | 39.6
